Assay results from PubChem BioAssay (NCI).
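Exposure lasted 48 hours, with cells grown in 96-well plates and compounds tested at five concentrations. TGI marks complete inhibition of growth.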

What was measured:
Assay in all cases: NCI tumour cell line growth inhibition, 48 h
T-47D breast = test system: T-47D breast
HOP-62 NSCLC = test system: HOP-62 NSCLC
K-562 leukemia = test system: K-562 leukemia
BT-549 breast = test system: BT-549 breast
NCI-H226 lung = test system: NCI-H226 lung
NCI-H522 lung = test system: NCI-H522 lung
SK-MEL-2 melanoma = test system: SK-MEL-2 melanoma
OVCAR-5 ovarian = test system: OVCAR-5 ovarian
HS 578T breast = test system: HS 578T breast
MDA-MB-435 = test system: MDA-MB-435
PC-3 prostate = test system: PC-3 prostate
NCI-H460 lung = test system: NCI-H460 lung
SNB-75 CNS = test system: SNB-75 CNS
CCRF-CEM leukemia = test system: CCRF-CEM leukemia
U251 CNS = test system: U251 CNS
UACC-257 melanoma = test system: UACC-257 melanoma
MCF7 breast = test system: MCF7 breast
SK-OV-3 ovarian = test system: SK-OV-3 ovarian
HCT-15 colon = test system: HCT-15 colon
EKVX NSCLC = test system: EKVX NSCLC
SK-MEL-5 melanoma = test system: SK-MEL-5 melanoma
MOLT-4 leukemia = test system: MOLT-4 leukemia
HOP-92 NSCLC = test system: HOP-92 NSCLC
LOX IMVI melanoma = test system: LOX IMVI melanoma
OVCAR-3 ovarian = test system: OVCAR-3 ovarian
HCC-2998 colon = test system: HCC-2998 colon
MALME-3M melanoma = test system: MALME-3M melanoma
TK-10 renal = test system: TK-10 renal
SK-MEL-28 melanoma = test system: SK-MEL-28 melanoma
RPMI-8226 leukemia = test system: RPMI-8226 leukemia
COLO 205 colon = test system: COLO 205 colon
SF-268 CNS = test system: SF-268 CNS
MDA-MB-231 breast = test system: MDA-MB-231 breast
SW-620 colon = test system: SW-620 colon
SF-295 CNS = test system: SF-295 CNS
OVCAR-4 ovarian = test system: OVCAR-4 ovarian
KM12 colon = test system: KM12 colon
M14 melanoma = test system: M14 melanoma
RXF 393 renal = test system: RXF 393 renal
ACHN renal = test system: ACHN renal
SN12C renal = test system: SN12C renal
DU-145 prostate = test system: DU-145 prostate
SNB-19 CNS = test system: SNB-19 CNS
OVCAR-8 ovarian = test system: OVCAR-8 ovarian
MDA-N = test system: MDA-N
SF-539 CNS = test system: SF-539 CNS
SR leukemia = test system: SR leukemia
HCT-116 colon = test system: HCT-116 colon
CAKI-1 renal = test system: CAKI-1 renal
IGROV1 ovarian = test system: IGROV1 ovarian
HT29 colon = test system: HT29 colon
A498 renal = test system: A498 renal
A549 NSCLC = test system: A549 NSCLC
786-0 renal = test system: 786-0 renal
UACC-62 melanoma = test system: UACC-62 melanoma
NCI-H23 lung = test system: NCI-H23 lung
HL-60(TB) leukemia = test system: HL-60(TB) leukemia
NCI/ADR-RES ovarian = test system: NCI/ADR-RES ovarian
UO-31 renal = test system: UO-31 renal

`CC(C)c1ccc(/C=C2\N=C(c3ccc([N+](=O)[O-])cc3)OC2=O)cc1` was tested, and the TGI (T-47D breast) was > 100 µM, the TGI (HOP-62 NSCLC) was > 100 µM and the TGI (K-562 leukemia) was > 100 µM. For the same molecule, the TGI (BT-549 breast) was > 100 µM, the TGI (NCI-H226 lung) was > 100 µM and the TGI (NCI-H522 lung) was > 100 µM. The TGI (SK-MEL-2 melanoma) was > 100 µM, the TGI (OVCAR-5 ovarian) was > 100 µM and the TGI (HS 578T breast) was > 100 µM. For the same molecule, the TGI (MDA-MB-435) was > 100 µM, the TGI (PC-3 prostate) was > 100 µM and the TGI (NCI-H460 lung) was > 100 µM. The TGI (SNB-75 CNS) was > 100 µM, the TGI (CCRF-CEM leukemia) was > 100 µM and the TGI (U251 CNS) was > 100 µM. For the same molecule, the TGI (UACC-257 melanoma) was > 100 µM, the TGI (MCF7 breast) was > 100 µM and the TGI (SK-OV-3 ovarian) was > 100 µM. The TGI (HCT-15 colon) was > 100 µM, the TGI (EKVX NSCLC) was > 100 µM and the TGI (SK-MEL-5 melanoma) was > 100 µM. For the same molecule, the TGI (MOLT-4 leukemia) was > 100 µM, the TGI (HOP-92 NSCLC) was > 100 µM and the TGI (LOX IMVI melanoma) was > 100 µM. The TGI (OVCAR-3 ovarian) was > 100 µM, the TGI (HCC-2998 colon) was > 100 µM and the TGI (MALME-3M melanoma) was > 100 µM. The TGI (TK-10 renal) was > 100 µM, the TGI (SK-MEL-28 melanoma) was > 100 µM and the TGI (RPMI-8226 leukemia) was > 100 µM. The TGI (COLO 205 colon) was > 100 µM, the TGI (SF-268 CNS) was > 100 µM and the TGI (MDA-MB-231 breast) was > 100 µM. For the same molecule, the TGI (SW-620 colon) was > 100 µM, the TGI (SF-295 CNS) was > 100 µM and the TGI (OVCAR-4 ovarian) was > 100 µM. For the same molecule, the TGI (KM12 colon) was > 100 µM, the TGI (M14 melanoma) was > 100 µM and the TGI (RXF 393 renal) was > 100 µM. For the same molecule, the TGI (ACHN renal) was > 100 µM, the TGI (SN12C renal) was > 100 µM and the TGI (DU-145 prostate) was > 100 µM. The TGI (SNB-19 CNS) was > 100 µM, the TGI (OVCAR-8 ovarian) was > 100 µM and the TGI (MDA-N) was > 100 µM. The TGI (SF-539 CNS) was > 100 µM, the TGI (SR leukemia) was > 100 µM and the TGI (HCT-116 colon) was > 100 µM. The TGI (CAKI-1 renal) was > 100 µM, the TGI (IGROV1 ovarian) was > 100 µM and the TGI (HT29 colon) was > 100 µM. The TGI (A498 renal) was > 100 µM, the TGI (A549 NSCLC) was > 100 µM and the TGI (786-0 renal) was > 100 µM. For the same molecule, the TGI (UACC-62 melanoma) was > 100 µM, the TGI (NCI-H23 lung) was > 100 µM and the TGI (HL-60(TB) leukemia) was > 100 µM.
For `C=CCc1cccc2cc(C(N)=O)c(=N)oc12`, the TGI (T-47D breast) was > 100 µM, the TGI (HOP-62 NSCLC) was > 100 µM and the TGI (BT-549 breast) was > 100 µM. For the same molecule, the TGI (NCI-H226 lung) was > 100 µM, the TGI (SK-MEL-2 melanoma) was > 100 µM and the TGI (OVCAR-5 ovarian) was > 100 µM. For the same molecule, the TGI (MDA-MB-435) was > 100 µM, the TGI (PC-3 prostate) was > 100 µM and the TGI (NCI-H460 lung) was > 100 µM. For the same molecule, the TGI (SNB-75 CNS) was > 100 µM, the TGI (CCRF-CEM leukemia) was > 100 µM and the TGI (NCI/ADR-RES ovarian) was > 100 µM. For the same molecule, the TGI (U251 CNS) was > 100 µM, the TGI (UACC-257 melanoma) was > 100 µM and the TGI (SK-OV-3 ovarian) was > 100 µM. The TGI (HCT-15 colon) was > 100 µM, the TGI (SK-MEL-5 melanoma) was > 100 µM and the TGI (MOLT-4 leukemia) was > 100 µM. For the same molecule, the TGI (HOP-92 NSCLC) was > 100 µM, the TGI (LOX IMVI melanoma) was > 100 µM and the TGI (OVCAR-3 ovarian) was > 100 µM. The TGI (HCC-2998 colon) was > 100 µM, the TGI (SK-MEL-28 melanoma) was > 100 µM and the TGI (RPMI-8226 leukemia) was > 100 µM. The TGI (COLO 205 colon) was > 100 µM, the TGI (MDA-MB-231 breast) was > 100 µM and the TGI (SW-620 colon) was > 100 µM. For the same molecule, the TGI (OVCAR-4 ovarian) was > 100 µM, the TGI (KM12 colon) was > 100 µM and the TGI (M14 melanoma) was > 100 µM. For the same molecule, the TGI (RXF 393 renal) was > 100 µM, the TGI (ACHN renal) was > 100 µM and the TGI (SN12C renal) was > 100 µM. The TGI (DU-145 prostate) was > 100 µM, the TGI (SNB-19 CNS) was > 100 µM and the TGI (OVCAR-8 ovarian) was > 100 µM. The TGI (MDA-N) was > 100 µM, the TGI (SR leukemia) was > 100 µM and the TGI (HCT-116 colon) was > 100 µM. For the same molecule, the TGI (CAKI-1 renal) was > 100 µM, the TGI (IGROV1 ovarian) was 90.3 µM and the TGI (HT29 colon) was > 100 µM. For the same molecule, the TGI (A498 renal) was > 100 µM, the TGI (A549 NSCLC) was > 100 µM and the TGI (786-0 renal) was > 100 µM. For the same molecule, the TGI (UACC-62 melanoma) was > 100 µM, the TGI (NCI-H23 lung) was > 100 µM and the TGI (HL-60(TB) leukemia) was > 100 µM.
`C=C1C(=O)OC2/C=C(/CO)C3(O)CC(O)C(C)(CC(OC(=O)/C(C)=C/C)C12)O3` (stereo not drawn) was tested, and the TGI (T-47D breast) was 39.9 µM, the TGI (HOP-62 NSCLC) was > 100 µM and the TGI (K-562 leukemia) was > 100 µM. For the same molecule, the TGI (BT-549 breast) was 18.3 µM, the TGI (NCI-H226 lung) was 51.5 µM and the TGI (NCI-H522 lung) was 7.32 µM. The TGI (SK-MEL-2 melanoma) was > 66.1 µM, the TGI (OVCAR-5 ovarian) was 63.5 µM and the TGI (HS 578T breast) was > 100 µM. The TGI (MDA-MB-435) was > 57.1 µM, the TGI (PC-3 prostate) was 83.9 µM and the TGI (NCI-H460 lung) was 48.9 µM. For the same molecule, the TGI (SNB-75 CNS) was > 100 µM, the TGI (CCRF-CEM leukemia) was > 24.6 µM and the TGI (U251 CNS) was 48.7 µM. For the same molecule, the TGI (UACC-257 melanoma) was 39 µM, the TGI (MCF7 breast) was 23.9 µM and the TGI (SK-OV-3 ovarian) was > 61.7 µM. It also gave a TGI (HCT-15 colon) of 31.6 µM, a TGI (EKVX NSCLC) of 48.5 µM and a TGI (SK-MEL-5 melanoma) of 54.6 µM. It also gave a TGI (MOLT-4 leukemia) of 9.95 µM, a TGI (HOP-92 NSCLC) of 30.6 µM and a TGI (LOX IMVI melanoma) of 25.9 µM. The TGI (OVCAR-3 ovarian) was > 67.8 µM, the TGI (HCC-2998 colon) was 29 µM and the TGI (MALME-3M melanoma) was 29.8 µM. It also gave a TGI (TK-10 renal) of 32.1 µM, a TGI (SK-MEL-28 melanoma) of 49.5 µM and a TGI (RPMI-8226 leukemia) of 7.5 µM. The TGI (COLO 205 colon) was 14.7 µM, the TGI (SF-268 CNS) was > 59.9 µM and the TGI (MDA-MB-231 breast) was 34.6 µM. For the same molecule, the TGI (SW-620 colon) was 22.3 µM, the TGI (SF-295 CNS) was > 73 µM and the TGI (OVCAR-4 ovarian) was > 62.9 µM. For the same molecule, the TGI (KM12 colon) was 42 µM, the TGI (M14 melanoma) was > 58.3 µM and the TGI (RXF 393 renal) was 12.6 µM. For the same molecule, the TGI (ACHN renal) was 25 µM, the TGI (SN12C renal) was 32.9 µM and the TGI (DU-145 prostate) was 41.4 µM. The TGI (SNB-19 CNS) was > 100 µM, the TGI (OVCAR-8 ovarian) was 45.2 µM and the TGI (MDA-N) was > 61 µM. For the same molecule, the TGI (SF-539 CNS) was 61.4 µM, the TGI (SR leukemia) was > 26.1 µM and the TGI (HCT-116 colon) was > 44.7 µM. The TGI (CAKI-1 renal) was 11.6 µM, the TGI (IGROV1 ovarian) was 43.2 µM and the TGI (HT29 colon) was 25 µM. The TGI (A498 renal) was 50.2 µM, the TGI (A549 NSCLC) was > 74.6 µM and the TGI (UO-31 renal) was > 67.2 µM. It also gave a TGI (786-0 renal) of 52.3 µM, a TGI (UACC-62 melanoma) of 21 µM and a TGI (NCI-H23 lung) of 42.9 µM. For the same molecule, the TGI (HL-60(TB) leukemia) was > 23 µM.
